Assay results reported in patent publication US20180332878A1, “BITTER TASTE INHIBITOR” (NAGAOKA CO., LTD., priority 2017, published 2018).

How the values were obtained:
Assay type in all cases: in vivo, human
[1] = Sensory evaluation, summary of Table 1; details: added to a food or beverage having a bitter taste; without deteriorating the influence of the food or beverage itself
Excerpt: The beer (without addition of isobutyl angelate) was tasted by seven panelists (one twenty-something male, one thirty-something male, one forty-something male, one fifty-something male, one sixty-something male, and one twenty-something female and one thirty-something female). Subsequently, the seven panelists rinsed their mouths sufficiently, and then the beer having isobutyl angelate added thereto (with addition of isobutyl angelate) was tasted by the seven panelists. The panelists compared the isobutyl-angelate-free beer with the isobutyl-angelate-containing beer, and then determined whether or not the bitter taste in the isobutyl-angelate-containing beer was improved compared with the isobutyl-angelate-free beer in accordance with the following criteria. When the sum total of the scores determined by the seven panelists was 10 points or greater, it was determined that the bitter taste was improved.
1 point: although a bitter taste was sensed, the bitter taste was improved compared with the isobutyl-angelate-free beer; and
0 point: the bitter taste was not improved.

[2] = Sensory evaluation, summary of Table 2; details: added to an amino acid having a bitter taste
[3] = Sensory evaluation, summary of Table 3; details: added to an extract of a crude drug having a bitter taste

Structure (SMILES): C/C=C(/C)C(=O)OCC(C)C [isobutyl angelate, Isobutyl angelate]
- Effect on bitter taste (summary of Table 1) [1]: the bitter taste is reduced
- Effect on bitter taste (summary of Table 2) [2]: the bitter taste derived from the amino acid is reduced
- Effect on bitter taste (summary of Table 3) [3]: a bitter taste derived from the crude drug is reduced
